Where “and” joins values, the source holds several entries; their conditions need not be identical. Equal values may be shown once.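 All cell lines were grown in 96-well plates and treated with compound for 48 hours. GI50 = concentration required for 50% inhibition of growth. Definition used: TGI = concentration required for complete inhibition of growth.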
What was measured:
Assay in all cases: NCI anticancer screen, dose series, 48 h
TK-10 renal = system: TK-10 renal
SK-OV-3 ovarian = system: SK-OV-3 ovarian
CCRF-CEM leukemia = system: CCRF-CEM leukemia
NCI-H522 lung = system: NCI-H522 lung
MCF7 breast = system: MCF7 breast
HCT-116 colon = system: HCT-116 colon
SN12C renal = system: SN12C renal
LOX IMVI melanoma = system: LOX IMVI melanoma
NCI-H23 lung = system: NCI-H23 lung
MDA-MB-231 breast = system: MDA-MB-231 breast

Structure (SMILES)	TGI (TK-10 renal) [µM]	TGI (SK-OV-3 ovarian) [µM]	TGI (CCRF-CEM leukemia)	TGI (NCI-H522 lung) [µM]	TGI (MCF7 breast)	TGI (HCT-116 colon)	TGI (SN12C renal) [µM]	TGI (LOX IMVI melanoma)	TGI (NCI-H23 lung) [µM]	TGI (MDA-MB-231 breast) [µM]	GI50 (TK-10 renal) [µM]	GI50 (SK-OV-3 ovarian) [µM]	GI50 (CCRF-CEM leukemia) [µM]	GI50 (NCI-H522 lung) [µM]	GI50 (MCF7 breast) [µM]	GI50 (HCT-116 colon) [µM]	GI50 (SN12C renal) [µM]	GI50 (LOX IMVI melanoma) [µM]	GI50 (MDA-MB-231 breast) [µM]	GI50 (NCI-H23 lung) [µM]
COC1CC2CCC(C)[C@](O)(O2)C(=O)C(=O)N2CCCCC2C(=O)OC(C(C)CC2CCC(O)C(OC)C2)CC(=O)C(C)C=C(C)C(OC(=O)CN(C)C)C(OC)C(=O)C(C)CC(C)/C=C/C=C/C=C\1C (some centres not stated)	23.8	20	5.42 µM	22.6	17.6 µM	22.2 µM	18.7	16.7 µM	24.3	20.4										
COC(=O)C1C(=O)O[C@@H](c2ccc(OC)cc2OC)C1C(=O)OC (some centres not stated)	> 100	> 100	> 100 µM			> 100 µM	> 100	> 100 µM	> 100											
O=C(CC(=O)C(F)(F)F)c1csc2ccccc12	28.4	63.6	> 100 µM	> 100		> 100 µM	75.4	> 100 µM	> 100											
CNC1C(O)CC(OC2C/C=C(\C)C/C(C)=C/C=C/CCC(C)CNC(=O)/C=C/C=C/C2C)OC1C (configuration not stated)	3.17	3.27	0.758 µM	2.81		0.324 µM	1.94	0.263 µM	2.62	2.91										
ON(CCc1ccccn1)Cc1ccccc1	> 100	> 100		> 100	> 100 µM	> 100 µM	> 100	> 100 µM	> 100	> 100										
CSC(=S)NNC(=O)c1ccncc1	75.6	96.2	43.1 µM	31.4		38.3 µM	41.4	33.6 µM	33.2											
Cc1cc(C)n(-c2c(O)ccc(O)c2-n2nc(C)cc2C)n1	> 100	> 100	> 100 µM	> 100			> 100	> 100 µM	> 100											
CC1OC(O)CC(OC(=O)c2ccccc2)C1OC(=O)c1ccccc1 (configuration not stated)	> 100		38.2 µM	> 100		23.3 µM	32.3	23.1 µM	30.8											
CCC(=C(c1ccc(OCc2ccccc2)cc1)c1ccc(OCc2ccccc2)cc1)c1ccc(OC)cc1	> 100	> 100	> 100 µM	> 100		> 100 µM	> 100	> 100 µM	> 100											
Clc1ccc(CO/N=C(\Cn2ccnc2)c2ccc(Cl)cc2Cl)c(Cl)c1	3.25	3.18	4.62 µM	3.28	3.02 µM	3.19 µM	2.93	3.21 µM		2.75	1.81	1.8	1.87	1.52	1.54	1.5	1.44	1.45	1.32	
COC(=O)C1=CC2OC1(C)C1(CC1)C2=O (configuration not stated)		> 100	23.2 µM	20.7		27.8 µM	31	28.5 µM	49.7											
CC(=O)Nc1ccc(/C=C/C(=O)c2sc(C(N)=S)nc2C)cc1	> 100	> 100	> 100 µM	> 100			> 100	> 100 µM	> 100											
Cc1ccc(C2=NO[C@@H]3C(=O)N(c4ccc(Cc5ccc(N6C(=O)[C@H]7C(c8ccc(C)cc8)=NO[C@H]7C6=O)cc5)cc4)C(=O)[C@H]23)cc1	> 100	> 100	> 100 µM				> 100	> 100 µM	> 100											
O=C(C=Nc1ccccc1C(=O)[O-])c1cccs1.O=C(C=Nc1ccccc1C(=O)[O-])c1cccs1.[Cu+2]	> 100	> 100	> 10 µM	> 100		> 100 µM	> 100	> 100 µM	> 100											
CC[C@H](C)C(=O)O[C@H]1CCC=C2C=C[C@H](C)C(CCC3C[C@@H](O)CC(=O)O3)[C@H]21 (some centres not stated)	> 100	> 100	> 100 µM		> 100 µM	62.1 µM	> 100	> 100 µM	> 100	12.5	18.5		> 100		39.5	2.99	3.5	0.965	0.455	3.5
CC1C2=CC=C(O2)C(C)(C)C2=CC=C(O2)C(C)(C)C2=CC=C(O2)C(C)(C)C2=CC=C1O2	> 100	> 100	> 100 µM	> 100		> 100 µM	> 100	> 100 µM	> 100											
CCCCCCCCCC(=O)OCC1OC(n2cc(F)c(=O)[nH]c2=O)C(N)C(OC(=O)CCCCCCCCC)C1O (configuration not stated)	> 100	> 100	50.4 µM	30.1		32.1 µM	32.2	30.1 µM	36											
Nc1nc(N)c(-c2ccc(Cl)cc2)c(CCC(=O)Nc2cccc(C(F)(F)F)c2)n1	> 100	> 100	> 100 µM	> 100		> 100 µM	> 100	> 100 µM	> 100											
Cc1ccc2[nH]c(=O)c(C(C#N)c3ccccc3)nc2c1 (configuration not stated)	> 100	> 100	> 100 µM	70.7		> 100 µM	> 100	> 100 µM	> 100											
CN=S(=O)(C[C@]1(O)CC2OC1C1OC(C)(C)OC21)c1ccccc1 (some centres not stated)	> 100	> 100	> 100 µM	> 100		> 100 µM	> 100		> 100											
COC(=O)c1c2c(c(C)[n+]([O-])c1C)C(=O)C(NCc1ccc(F)c(F)c1)=CC2=O			4.57 µM	3.75	3.36 µM	5.71 µM	4.32	6.76 µM	4.52	6.09			1.72	1.57	1.48	1.65	1.73	1.98	1.75	1.87
C=CCN(N=O)C(=O)N(CCC)CCCCC(NC(C)=O)C(=O)NCc1ccccc1 (configuration not stated)	> 100	> 100	> 100 µM	> 100			> 100	> 100 µM	> 100											

Structure (SMILES)	TGI (TK-10 renal) [µM]	TGI (SK-OV-3 ovarian) [µM]	TGI (CCRF-CEM leukemia)	TGI (NCI-H522 lung) [µM]	TGI (MCF7 breast)	TGI (HCT-116 colon)	TGI (SN12C renal) [µM]	TGI (LOX IMVI melanoma)	TGI (NCI-H23 lung) [µM]	TGI (MDA-MB-231 breast) [µM]	GI50 (TK-10 renal) [µM]	GI50 (SK-OV-3 ovarian) [µM]	GI50 (CCRF-CEM leukemia) [µM]	GI50 (NCI-H522 lung) [µM]	GI50 (MCF7 breast) [µM]	GI50 (HCT-116 colon) [µM]	GI50 (SN12C renal) [µM]	GI50 (LOX IMVI melanoma) [µM]	GI50 (MDA-MB-231 breast) [µM]	GI50 (NCI-H23 lung) [µM]
Cn1cnc2c(NCc3ccccc3)nc(NCCO)nc21	> 456	> 460	98.2 µM and 353 µM	322	90.4 µM and > 268 µM	> 96.5 µM and 321 µM		81.4 µM and > 395 µM	382	479	135	241	143	90.6	62.9	49.3		48.4	116	110
CCOC(=O)C1=C(C)N(NC(=O)c2ccccc2)C2(O)CCCC12C(=O)OCC (configuration not stated)		> 100		> 100		> 100 µM	> 100	> 100 µM												
CCOC(=O)/C=C1\Nc2ccccc2-n2nnnc21	> 100	> 100	> 100 µM			> 100 µM	> 100	> 100 µM	> 100											
COc1ccc2c(c1)[n+]([O-])c(-c1nc3ccccc3s1)c(N)[n+]2[O-]		> 100		> 100		> 100 µM	> 100		> 100											
Cc1ccc(S(=O)(=O)N/N=C(\C(=O)Nc2cccc([N+](=O)[O-])c2)c2nc3ccc([N+](=O)[O-])cc3[nH]c2=O)cc1		> 100	> 100 µM	> 100		> 100 µM	> 100	> 100 µM	> 100											
Cn1c2cccc3nnc4cccc(c4c32)n1C			> 100 µM			> 100 µM	> 100	> 100 µM												
Cc1c(CCl)c(=O)oc2c(C)c3occ(CCl)c(=O)c3cc12	> 100	> 100	14.2 µM	30.5			56.4	30.8 µM	83.7											
O=C(CC1(O)C(=O)Nc2c(Cl)cc(Cl)cc21)c1ccc2ccccc2c1 (configuration not stated)	27.9	24.6	39 µM	10.9		13.4 µM	22.9	24.3 µM	22.3											
CCN(CC)CCOc1cc2c(C(=O)OC)c(C)oc2cc1C(C)=O	31.4	30.2	7.59 µM	> 100	45.2 µM		6.54	22 µM	27.7	23.5	16.8	14.7	2.92	13.2	22.8		1.64	10.2	10.8	11.8
CCN(CC)c1ccc2c(c1)N=C1N=CC=CN1C2(c1ccc(N(C)C)cc1)c1ccc(N(C)C)cc1	28.6	19.1	23.5 µM	5.12		11.8 µM	19.3	18.4 µM	20.2											
Clc1ccc2nc(CCSCCc3nc4ccc(Cl)cc4[nH]3)[nH]c2c1	22.1	34.2	41.6 µM	26.5		19.3 µM	30.3	40.4 µM	31.3											
COc1cnc2c(c1)C(=O)c1c-2n(CCCN2CCN(C)CC2)c(=O)c2cc(Cl)ccc12		36.4	20.1 µM	52.1	21.7 µM	> 100 µM	58.2	18.9 µM	24.6	23.2		10.1	0.527	6.32	0.487	0.982	10.2	0.779	10.7	6.27
O=C(O)/C(Cl)=C(\Cl)C(=O)Nc1ccccc1	> 100	> 100	> 100 µM			> 100 µM	> 100	> 100 µM	> 100											
O=C(Cn1ccnc1[N+](=O)[O-])NCC(F)(F)C(F)(F)F	> 100	> 100		> 100	> 100 µM	> 100 µM	> 100	> 100 µM	> 100	> 100	> 100	> 100		> 100	> 100	> 100	> 100	> 100	> 100	> 100
CC12CC3CC(C)(C1)CC(N=[N+]=[N-])(C3)C2	> 100	> 100	> 100 µM	> 100		> 100 µM	> 100	> 100 µM	> 100											
Cc1cc(C)nc(SC2=C(Nc3cccc(Cl)c3)C(=O)N(Cc3ccccc3)C2=O)n1	> 170	> 170	> 170 µM	> 170	> 170 µM	> 170 µM		> 170 µM	> 170	> 170	> 170	> 170	> 170	> 170	> 170	> 170		> 170	> 170	> 170
O=C(NCC#CCO)C(F)(F)F	> 100	> 100		> 100		> 100 µM	> 100	> 100 µM	> 100											
Cc1c(Cl)ccc2c1NC(=O)C2(O)C1Cc2ccccc2C1=O (configuration not stated)	> 100	> 100	> 100 µM	> 100		> 100 µM	> 100	> 100 µM	> 100											
COc1ccccc1NC(=O)C1=C(C)NC(C)=C(C(=O)Nc2ccccc2OC)C1c1ccccc1OC	> 100	> 100	> 100 µM	> 100		> 100 µM	> 100	> 100 µM	> 100											
Cc1ccc2sc3c(NCCCNCCO)nc4ccccc4c3c(=O)c2c1		3.02	2.97 µM	3.43	3.17 µM	2.73 µM	3.16	2.94 µM	3.35	3.04		1.45	1.35	1.66	1.61	1.41	1.6	1.49	1.56	1.74
CC1C(=O)N(C)C2(CO)C(=O)O[C@H](C)C12O (some centres not stated)	> 100	> 100				> 100 µM			> 100											

— PubChem BioAssay (NCI)
